Common to all, as to format: biochemical
One test deals with T1, Recombinant human FAP (Homo sapiens, UniProt Q12884).
T1 construct: purchased R&D systems
T1 sequence (Q12884 1-760): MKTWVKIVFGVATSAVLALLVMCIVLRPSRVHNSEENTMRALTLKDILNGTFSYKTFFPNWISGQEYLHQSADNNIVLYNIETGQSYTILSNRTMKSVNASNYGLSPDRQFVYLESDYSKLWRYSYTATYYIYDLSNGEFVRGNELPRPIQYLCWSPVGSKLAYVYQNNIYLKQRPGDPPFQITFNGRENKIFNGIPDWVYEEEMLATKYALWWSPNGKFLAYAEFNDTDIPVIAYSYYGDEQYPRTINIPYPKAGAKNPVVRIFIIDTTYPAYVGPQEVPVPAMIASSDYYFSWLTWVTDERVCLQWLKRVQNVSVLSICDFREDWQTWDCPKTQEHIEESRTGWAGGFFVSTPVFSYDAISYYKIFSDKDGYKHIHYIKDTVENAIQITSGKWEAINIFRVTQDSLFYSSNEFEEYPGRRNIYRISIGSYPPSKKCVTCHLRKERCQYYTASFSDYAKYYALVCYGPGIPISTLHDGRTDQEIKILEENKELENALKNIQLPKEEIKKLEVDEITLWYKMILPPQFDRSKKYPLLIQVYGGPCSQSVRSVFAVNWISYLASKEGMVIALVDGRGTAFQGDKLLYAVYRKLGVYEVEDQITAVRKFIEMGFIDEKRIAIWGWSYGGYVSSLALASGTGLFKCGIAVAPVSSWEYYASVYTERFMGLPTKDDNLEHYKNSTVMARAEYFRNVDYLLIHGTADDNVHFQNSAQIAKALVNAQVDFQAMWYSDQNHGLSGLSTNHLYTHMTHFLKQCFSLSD
Kind of test: FAP inhibition, fluorogenic substrate Z-Gly-Pro-AMC. A digest of the protocol:
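Eight-point compound dilutions (≤0.1% DMSO) were incubated at 25° C with 10 ng recombinant human FAP in Tris pH 7.5/1 M NaCl/BSA buffer and Z-Gly-Pro-AMC. Inhibition was taken as % drop in fluorescence rate (380/460 nm) against uninhibited control; IC50 came from a four-parameter logistic fit.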

A further test addresses T2, recombinant human PREP (Homo sapiens, UniProt P48147).
T2 construct: purchased R&D System
T2 sequence (P48147 1-710): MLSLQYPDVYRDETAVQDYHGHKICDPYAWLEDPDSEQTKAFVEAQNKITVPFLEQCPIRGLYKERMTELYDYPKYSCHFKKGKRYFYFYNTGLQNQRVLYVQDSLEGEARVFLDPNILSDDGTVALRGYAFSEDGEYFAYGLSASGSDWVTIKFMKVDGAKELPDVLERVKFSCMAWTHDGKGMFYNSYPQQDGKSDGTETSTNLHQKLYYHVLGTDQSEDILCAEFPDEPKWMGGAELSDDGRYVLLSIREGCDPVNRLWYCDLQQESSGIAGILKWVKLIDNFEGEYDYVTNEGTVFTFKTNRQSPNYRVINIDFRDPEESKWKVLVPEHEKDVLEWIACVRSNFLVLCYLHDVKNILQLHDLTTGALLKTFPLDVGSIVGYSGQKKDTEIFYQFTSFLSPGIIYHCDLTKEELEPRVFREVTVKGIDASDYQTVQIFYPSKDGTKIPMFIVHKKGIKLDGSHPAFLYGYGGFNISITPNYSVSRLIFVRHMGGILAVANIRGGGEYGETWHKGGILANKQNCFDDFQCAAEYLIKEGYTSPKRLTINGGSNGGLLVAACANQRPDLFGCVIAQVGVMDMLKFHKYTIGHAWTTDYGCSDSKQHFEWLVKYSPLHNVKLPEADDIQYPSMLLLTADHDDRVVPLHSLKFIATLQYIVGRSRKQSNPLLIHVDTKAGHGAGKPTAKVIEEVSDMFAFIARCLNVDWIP
The experiment in a line: PREP inhibition, fluorogenic substrate Z-Gly-Pro-AMC. The settings on record: Inhibitory Activity (IC50, nM) PREP. The procedure, abridged: (§1)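 Inhibitors are titrated in an 8-point series into the enzyme's assay buffer (DMSO no more than 0.5%). Substrate cleavage at 25 °C is followed by fluorescence, excitation 380 nm and emission 460 nm. IC50 values come from a four-variable logistic model.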

The target of a further test is T3, recombinant human DPP7 (Homo sapiens, UniProt Q9UHL4).
T3 construct: purchased R&D Systems
Kind of test: DPP7 inhibition, fluorogenic substrate Lys-Pro-AMC. A digest of the protocol:
as §1

In the next test the target is T4, recombinant human DPP9 (Homo sapiens, UniProt Q86TI2).
T4 construct: purchased R&D Systems
T4 sequence (Q86TI2 whole entry): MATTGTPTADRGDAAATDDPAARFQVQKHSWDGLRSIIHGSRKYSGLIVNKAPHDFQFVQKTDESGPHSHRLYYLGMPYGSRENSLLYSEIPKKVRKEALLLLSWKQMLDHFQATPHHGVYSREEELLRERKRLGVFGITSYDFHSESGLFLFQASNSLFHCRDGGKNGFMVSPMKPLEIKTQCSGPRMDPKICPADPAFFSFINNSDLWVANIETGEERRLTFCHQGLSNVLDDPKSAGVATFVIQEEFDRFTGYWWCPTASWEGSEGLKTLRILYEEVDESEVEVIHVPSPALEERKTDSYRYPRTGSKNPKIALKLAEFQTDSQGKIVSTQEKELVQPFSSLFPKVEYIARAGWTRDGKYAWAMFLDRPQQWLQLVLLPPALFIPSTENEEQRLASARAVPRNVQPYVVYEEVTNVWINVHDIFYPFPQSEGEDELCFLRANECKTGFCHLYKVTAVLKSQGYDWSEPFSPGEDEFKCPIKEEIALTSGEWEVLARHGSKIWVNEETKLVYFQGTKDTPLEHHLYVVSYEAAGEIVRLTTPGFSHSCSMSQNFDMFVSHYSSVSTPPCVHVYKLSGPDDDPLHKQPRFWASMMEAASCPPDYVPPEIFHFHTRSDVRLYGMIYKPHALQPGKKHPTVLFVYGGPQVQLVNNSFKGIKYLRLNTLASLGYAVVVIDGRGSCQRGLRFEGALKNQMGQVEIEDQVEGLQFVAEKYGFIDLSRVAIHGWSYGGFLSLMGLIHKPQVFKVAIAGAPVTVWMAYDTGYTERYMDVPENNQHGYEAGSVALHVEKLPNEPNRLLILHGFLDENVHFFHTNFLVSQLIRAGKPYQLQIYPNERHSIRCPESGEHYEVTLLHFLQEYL
Kind of test: DPP9 inhibition, fluorogenic substrate H-Gly-Pro-AMC. The procedure, abridged: as §1

Another test concerns the target T5, recombinant human DPP8 (Homo sapiens, UniProt Q6V1X1).
T5 construct: purchased PBS Bioscience
The experiment in a line: DPP8 inhibition, fluorogenic substrate Z-Ala-Pro-AMC. As to the method:
The compounds according to the present technology were evaluated in terms of the inhibitory effect on the activity of dipeptidyl peptidases including FAP by using a substrate producing fluorescent substances upon enzymatic decomposition. The test was conducted at 25° C. to get a final reaction volume of 100 μL in a 96 black well plate. […] Briefly, the test compounds were dissolved in dimethyl sulfoxide (DMSO) at a concentration of 20 mM and then subjected to serial dilution, thereby creating an 8 point curve. As for the control group, a 6 point curve created by serial dilution of Talabostat in the same buffer solution was used. Fluorescence intensity was measured using a microplate reader (Flexstation3, Molecular Devices) under the wavelength condition exciting at 380 nm and reading the emission at 460 nm. The inhibitory effect of the test compounds was measured as a decrease (%) in the signal rate as compared to the control group without any inhibitor. Data was fixed to a logistic model with four variables and IC50 value was calculated using GraphPad Prism program. As for recombinant human DPP4 (R&D Systems), 25 mM tris (pH 8.0) buffer as a buffer solution and H-Gly-Pro-AMC (Bachem) as a substrate were used. As for recombinant human DPP7 (R&D Systems), 25 mM MES (pH 6.0) buffer as a buffer solution and Lys-Pro-AMC (Bachem) as a substrate were used. As for recombinant human DPP8 (PBS Bioscience), as a buffer solution, a 10 mM tris (pH 7.4) buffer comprising 10 mM of magnesium chloride and 0.05% of Tween 20, and Z-Ala-Pro-AMC (BPS Bioscience) as a substrate were used. As for recombinant human DPP9 (R&D Systems), a 25 mM tris (pH 8.0) buffer as a buffer solution and H-Gly-Pro-AMC (Bachem) as a substrate were used. As for recombinant human PREP (R&D System), as a buffer solution, a 25 mM tris (pH 7.5) buffer comprising 250 mM sodium chloride and 2.5 mM DTT (Dithiolthreitol), and Z-Gly-Pro-AMC (Bachem) as a substrate were used. The evaluation was made by using 10 ng of DPP4, PDD7, and PREP, 20 ng of DPP8, and 50 ng of DPP9 based on the final reaction. In the evaluation of DPP4, the test compounds were subjected to serial dilution in a buffer under the condition containing up to 0.1% of DMSO. In the evaluation of DPP7, DPP8, DPP9, and PREP, the test compounds were subjected to serial dilution in each buffer under the condition containing up to 0.5% of DMSO.

The mark [1] stands for this setting: 25° C., Z-Gly-Pro-AMC substrate.
Where [2] appears, read: 25° C., H-Gly-Pro-AMC substrate.
[3] abbreviates: 25° C., Z-Ala-Pro-AMC substrate.
Setting [4] is: recombinant human FAP, substrate Z-Gly-Pro-AMC.

Read-outs that look alike come from different tables or passages of the source.

As a reminder, the IC50 is the midpoint of a concentration-inhibition curve.

T5 sequence (Q6V1X1 whole entry): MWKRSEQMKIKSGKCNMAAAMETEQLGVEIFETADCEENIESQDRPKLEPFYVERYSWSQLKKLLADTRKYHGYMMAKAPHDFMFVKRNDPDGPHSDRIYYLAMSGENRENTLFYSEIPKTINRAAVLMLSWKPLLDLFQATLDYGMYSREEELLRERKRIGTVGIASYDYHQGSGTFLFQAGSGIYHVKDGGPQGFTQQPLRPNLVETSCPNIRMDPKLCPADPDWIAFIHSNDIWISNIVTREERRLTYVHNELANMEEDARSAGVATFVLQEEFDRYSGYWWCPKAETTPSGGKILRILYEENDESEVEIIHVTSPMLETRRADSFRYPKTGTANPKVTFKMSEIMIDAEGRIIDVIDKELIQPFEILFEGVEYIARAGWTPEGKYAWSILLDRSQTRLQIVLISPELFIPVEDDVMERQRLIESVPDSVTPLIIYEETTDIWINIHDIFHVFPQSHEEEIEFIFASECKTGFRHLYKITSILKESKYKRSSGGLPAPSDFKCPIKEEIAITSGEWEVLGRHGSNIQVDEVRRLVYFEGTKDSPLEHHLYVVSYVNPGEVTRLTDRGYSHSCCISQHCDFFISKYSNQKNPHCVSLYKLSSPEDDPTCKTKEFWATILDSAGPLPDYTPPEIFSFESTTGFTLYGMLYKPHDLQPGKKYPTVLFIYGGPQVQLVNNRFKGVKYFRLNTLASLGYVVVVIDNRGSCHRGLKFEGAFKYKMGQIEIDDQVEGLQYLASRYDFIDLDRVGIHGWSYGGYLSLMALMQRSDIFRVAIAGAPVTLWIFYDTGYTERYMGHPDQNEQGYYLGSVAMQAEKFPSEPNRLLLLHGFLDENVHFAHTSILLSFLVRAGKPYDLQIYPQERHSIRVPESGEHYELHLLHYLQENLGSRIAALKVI

With `CN(c1cnc2ccc(F)cc2c1)[C@H]1CCN(CC(=O)N2CCC[C@H]2C#N)C1` [Example 151, (S)-1-(2-((S)-3-((6-fluoroquinolin-3-yl)(methyl)amino)pyrrolidin-1-yl)acetyl)pyrrolidine-2-carbonitrile], the half-inhibitory concentration (IC50) at Recombinant human FAP (setting [1]) stood at 0.0016 µM; at recombinant human PREP (setting [1]), 3090 nM; at recombinant human DPP7 it was 2.55 µM; on recombinant human DPP9 (setting [2]), 23.9 µM; at recombinant human DPP8 (setting [3]) it was 12.3 µM.

Regarding `COc1ccc2ncc(N(C)[C@H]3CCN(CC(=O)N4CCC[C@H]4C#N)C3)cc2c1` [Example 152, (S)-1-(2-((S)-3-((6-methoxyquinolin-3-yl)(methyl)amino)pyrrolidin-1-yl)acetyl)pyrrolidine-2-carbonitrile], the half-inhibitory concentration (IC50) was 0.0025 µM at Recombinant human FAP (setting [1]); 4130 nM on recombinant human PREP (setting [1]); 1.66 µM on recombinant human DPP7; 29 µM on recombinant human DPP9 (setting [2]); not below 100 µM at recombinant human DPP8 (setting [3]).

For `COc1cccc2cc(N(C)[C@H]3CCN(CC(=O)N4CCC[C@H]4C#N)C3)cnc12` [Example 154, (S)-1-(2-((S)-3-((8-methoxyquinolin-3-yl)(methyl)amino)pyrrolidin-1-yl)acetyl)pyrrolidine-2-carbonitrile], the IC50 at Recombinant human FAP (setting [1]) came to 0.0052 µM; at recombinant human PREP (setting [1]), 970 nM; on recombinant human DPP7, 3.31 µM; on recombinant human DPP9 (setting [2]), 41.7 µM; on recombinant human DPP8 (setting [3]), 22 µM.

Regarding `N#C[C@@H]1CCCN1C(=O)CN1CC[C@@H](Nc2cccc3ncccc23)C1` [Example 161, (S)-1-(2-((R)-3-(quinolin-5-ylamino)pyrrolidin-1-yl)acetyl)pyrrolidine-2-carbonitrile], the IC50 on Recombinant human FAP (setting [4]) came to 0.0014 µM; at recombinant human PREP (recombinant human PREP) it was 4250 nM; at recombinant human DPP7 (recombinant human DPP7), 5.45 µM; at recombinant human DPP9 (recombinant human DPP9), 25.4 µM; on recombinant human DPP8 (recombinant human DPP8), 41.5 µM.

`N#C[C@@H]1CCCN1C(=O)CN1CC[C@@H](Nc2ccc3ncccc3c2)C1` [Example 162, (2S)-1-[2-[(3R)-3-(6-quinolylamino)pyrrolidin-1-yl]acetyl]pyrrolidine-2-carbonitrile]: the IC50 at Recombinant human FAP (setting [4]) is 0.0052 µM; on recombinant human PREP (recombinant human PREP), 2610 nM; at recombinant human DPP7 (recombinant human DPP7) it was 2.34 µM; at recombinant human DPP9 (recombinant human DPP9), 14.9 µM; at recombinant human DPP8 (recombinant human DPP8) it was not below 100 µM.

Consider `N#C[C@@H]1C[C@H](F)CN1C(=O)CN1CC[C@@H](Nc2cnc3ccccc3c2)C1` [Example 165, (2S,4S)-4-fluoro-1-[2-[(3R)-3-(3-quinolylamino)pyrrolidin-1-yl]acetyl]pyrrolidine-2-carbonitrile], for which the IC50 at Recombinant human FAP (setting [4]) was 0.0023 µM; on recombinant human PREP (recombinant human PREP), 3970 nM; at recombinant human DPP7 (recombinant human DPP7), 1.15 µM; on recombinant human DPP9 (recombinant human DPP9), 7.55 µM; at recombinant human DPP8 (recombinant human DPP8), not below 100 µM.

With `N#C[C@@H]1C[C@H](F)CN1C(=O)CN1CC[C@@H](Nc2cccc3ncccc23)C1` [Example 166, (2S,4S)-4-fluoro-1-[2-[(3R)-3-(5-quinolylamino)pyrrolidin-1-yl]acetyl]pyrrolidine-2-carbonitrile], the IC50 at Recombinant human FAP (setting [4]) is 0.0021 µM; on recombinant human PREP (recombinant human PREP), 769 nM; at recombinant human DPP7 (recombinant human DPP7), 0.958 µM; at recombinant human DPP9 (recombinant human DPP9), 1.83 µM; on recombinant human DPP8 (recombinant human DPP8), 6.16 µM.

Take `N#C[C@@H]1C[C@H](F)CN1C(=O)CN1CC[C@@H](Nc2ccc3ncccc3c2)C1` [Example 167, (2S,4S)-4-fluoro-1-[2-[(3R)-3-(6-quinolylamino)pyrrolidin-1-yl]acetyl]pyrrolidine-2-carbonitrile]: the IC50 at Recombinant human FAP (setting [4]) came out at 0.0014 µM; at recombinant human PREP (recombinant human PREP), 5860 nM; on recombinant human DPP7 (recombinant human DPP7), 2.04 µM; at recombinant human DPP9 (recombinant human DPP9) it was 2.56 µM; on recombinant human DPP8 (recombinant human DPP8) it was 6.28 µM.

With `N#C[C@@H]1C[C@H](F)CN1C(=O)CN1CC[C@@H](Nc2ccnc3ccccc23)C1` [Example 170, (2S,4S)-4-fluoro-1-[2-[(3R)-3-(4-quinolylamino)pyrrolidin-1-yl]acetyl]pyrrolidine-2-carbonitrile], the IC50 amounted to 0.0035 µM on Recombinant human FAP (setting [4]); 7980 nM on recombinant human PREP (recombinant human PREP); 0.302 µM at recombinant human DPP7 (recombinant human DPP7); 2.7 µM on recombinant human DPP9 (recombinant human DPP9); 14 µM at recombinant human DPP8 (recombinant human DPP8).

For the molecule `N#C[C@@H]1C[C@H](F)CN1C(=O)CN1CCC(Nc2cncc3ccncc23)CC1` [Example 360, (2S,4S)-4-fluoro-1-[2-[4-(2,6-naphthyridin-4-ylamino)-1-piperidyl]acetyl]pyrrolidine-2-carbonitrile], the half-inhibitory concentration (IC50) on Recombinant human FAP (setting [4]) is 0.0019 µM; at recombinant human PREP (recombinant human PREP), 16400 nM; at recombinant human DPP7 (recombinant human DPP7) it was 1.34 µM; at recombinant human DPP9 (recombinant human DPP9), 7.35 µM; on recombinant human DPP8 (recombinant human DPP8), not below 100 µM.

On to `N#C[C@@H]1C[C@H](F)CN1C(=O)CN1CCC(Nc2cncc3c(Cl)cccc23)CC1` [Example 361, (2S,4S)-1-[2-[4-[(8-chloro-4-isoquinolyl)amino]-1-piperidyl]acetyl]-4-fluoro-pyrrolidine-2-carbonitrile], for which the IC50 on Recombinant human FAP (setting [4]) was 0.0027 µM; at recombinant human PREP (recombinant human PREP), 409 nM; at recombinant human DPP7 (recombinant human DPP7) it was 0.314 µM; at recombinant human DPP9 (recombinant human DPP9), 4.58 µM; on recombinant human DPP8 (recombinant human DPP8), not below 100 µM.

The values are drawn from patent US11655235B2, “Pyrrolidine and piperidine compounds” (YUHAN CORPORATION, priority 2019, dated 2023).
